One compound from patent US12677825B2, “Composition for protecting islet transplantation” (LG CHEM, LTD., priority 2020, dated 2026) can be followed below.

The subject of assay [1] is RINm5F cells. The experiment in a line: Serum-deprived culture of RINm5F cells (viability, ROS). It counts as cell-based, rat. The note with it: dose-dependent 0.1 μM to 20 μM. How it is done: (§1) Islets were isolated from heterozygous human islet amyloid polypeptide transgenic (hIAPP^+/−)FVB/N mice (Jackson Laboratory, Bar Harbor, ME, USA), […] mice (Orientbio, Sungnam, Korea), and cynomolgus monkeys (Macaca fascicularis; Orientbio, Sungnam, Korea). For additional in vitro studies, rat insulinoma cells (RINm5F cells) were treated with or without Compound 1 during culture under tert-butyl hydroperoxide (tBHP) exposure or serum deprivation condition. RINm5F cells were suspended in DMEM medium (Gibco, Grand Island, NY, USA) containing 100 IU/mL penicillin and 100 μg/mL streptomycin, and cultured at 37° C. in a fully humidified 5% CO2 atmosphere. All experimental protocols in this study were approved by the Institutional Animal Care and Use Committee (IACUC) of Samsung Biomedical Research Institute.

The subject of assay [2] is TNF-α, IL-1β, IL-6, c-JUN and HMGB1. The experiment in a line: Real-time qRT-PCR transcript levels during serum-deprived ex vivo culture. It counts as cell-based, mouse. The conditions noted are these: after 1 and 3 days of ex vivo culture, BSA+Compound 1 vs BSA group; FIGS. 6C, 6D. How it is done:
Purified hIAPP^+/− FVB/N and C57BL/6J mouse were suspended in RPMI 1640 (Gibco, Grand Island, NY, USA) containing 100 IU/mL penicillin and 100 μg/mL streptomycin, and cultured at 37° C. in a fully humidified 5% CO2 atmosphere. Purified NHP islets were suspended in CMRL 1066 medium (Coming Life Sciences, Tewksbury, MA; catalog number 99-663-CV) containing 100 IU/mL penicillin and 100 μg/mL streptomycin, and cultured at 37° C. in a fully humidified 5% CO2 atmosphere. […]
Harvested islets were treated with 500 μL Trizol (Life Technologies, Grand Island, NY, USA), and then 100 μL of chloroform was added. […] RNA purity was assessed by NanoDrop (Thermo Scientific, Wilmington, DE, USA) and agarose gel electrophoresis. […] Total RNA was reverse transcribed to quantify the expression of genes using the SuperScript™ II reverse transcription system (Life Technologies) according to the manufacturer's protocol.
Real-time qRT-PCR was performed using gene-specific primer pairs (Table 1). […] To quantify the expression level of genes, real-time PCR was performed using a SYBR premix kit (Takara Bio Inc., Tokyo, Japan) and an ABI Prism 7000 (Applied Biosystems, Foster City, CA, USA) according to the manufacturers' protocols.

Assay [3] has as its system RINm5F cells. The assay can be described thus: tert-butyl hydroperoxide (tBHP) exposure of RINm5F cells. It counts as cell-based, rat. The conditions noted are these: Compound 1 supplementation. On the procedure: as §1
Assay [4] has as its system islets from hIAPP+/− FVB/N mice. The experiment in a line: Glucose-stimulated insulin secretion (GSIS) assay after islet isolation. The class given is cell-based, mouse. The note with it: 20 μM Compound 1 during islet isolation, vs non-treated group; FIG. 1E. On the procedure: Mouse islets were isolated from 10- to 12-week-old hIAPP^+/− and C57BL/6 mice as described previously. Briefly, 0.8 mg/mL of collagenase P (Roche, Indianapolis, IN, USA) in Hank's buffered saline solution (HBSS, Sigma-Aldrich, St. Louis, MO, USA) with or without 20 μM Compound 1 were infused into the common bile duct for mouse pancreas digestion. Islets were purified from the digested pancreas using a Ficoll (Biochrom, Berlin, Germany) gradient and washed several times with 1 xHBSS. Isolated islets were cultured while free-floating in 10 mL of RPMI 1640 (Gibco, Grand Island, NY, USA). The medium was supplemented with 10% heat-inactivated FBS (fetal bovine serum) at 37° C. and 5% CO2 incubation prior to the ex vivo and in vivo studies.
After hand-picking and washing with PBS, islets were seeded on 12-mm diameter insert wells (Merck Millipore, Billerica, MA, USA) with 10 islets per well, and preincubated with 60 mg/dL glucose in Kreb's-Ringer buffer (KRB: 129 mM NaCl, 4.8 mM KCl, 2.5 mM CaCl2, 1.2 mM KH2PO4, 5 mM NaHCO3, 10 mM HEPES, and 0.2% BSA) for […] at 37° C. After washing, islets were incubated with 300 mg/dL glucose-KRB for 1 hour, followed by additional incubation with 60 mg/dL glucose-KRB for 1 hour. Insulin release into the supernatant by the mouse islets was measured by ELISA (ALPCO, Salem, NH, USA) and a multiplex kit (Merck Millipore), respectively.

The structures appear in SMILES notation.

As for `O=S1(=O)CCN(Cc2cc(NC3CCOCC3)c3[nH]c(-c4ccccc4)cc3c2)CC1` [Compound 1], the relative cell viability result in the assay on RINm5F cells [1] (serum deprivation, FIG. 4C) was “significantly increased”. In addition, in the assay with RINm5F cells [1] (serum-deprived culture, FIG. 4E), the “serum deprivation-induced ROS” value is recorded as “decreased”. In assay [2], the “transcript levels of TNF-α, IL-1β, IL-6, c-JUN and HMGB1” value is reported as “significantly attenuated”. The “cellular toxicity (LDH release)” value in the assay with RINm5F cells [3] (FIG. 4A) is recorded as “markedly reduced”. Also, the ROS contents result with RINm5F cells [3] (FIG. 4B) was “markedly reduced”. The “stimulation index in GSIS assay” value in assay [4] was “comparable values between two groups”.
